Experimental data published in PMC8922281, “Synthesis and In Vitro Biological Evaluation of Quinolinyl Pyrimidines Targeting Type II NADH-Dehydrogenase (NDH-2)” (ACS Infectious Diseases, 2022).
Values after ≈ are worked out from the molar mass of the structure shown.

System: A. baumannii ATCC19606 resistant mutant
Assay: microbe, parasite or virus in culture
Format: cell-based

CCOc1cc(Nc2ccc3nc(-c4ccc(F)cc4)cc(N)c3c2)nc(N)n1 [Compound 9a, N^6-(2-Amino-6-ethoxypyrimidin-4-yl)-2-(4-fluorophenyl)quinoline-4,6-diamine]
MIC (Acinetobacter baumannii, ATCC19606, read-out: MIC mutant): 4 µg/mL (≈ 10.2 µM)
fold increase of MIC (mutant CH5080 vs parent A. baumannii ATCC19606): 2
